Measurements from PMC8585037 (International Journal of Molecular Sciences, 2021).
Where “and” joins values, the source holds several entries; their conditions need not be identical. Equal values may be shown once.

How the values were obtained:
vesicular DA uptake = test system: vesicular DA uptake; parameters: method as in PMID 16835371; conditions: cited from earlier work
[1] = test system: DA, 3-MT, DOPAC, 5-HT and 5-HIAA in dorsal striatum and nucleus accumbens; experiment: Neurotransmitter and metabolite concentrations in post-mortem mouse brain tissue; format: in vivo; conditions: 20 min after 3.75 mg/kg i.p.
[2] = Pharmacokinetic studies: drug concentrations in mouse blood and brain tissue; conditions: for half-life / Cmax: C57BL/6, mouse, ip
DAT = biological target: T1, DAT (Rattus norvegicus, UniProt P23977); experiment: Synaptosomal uptake of [3H]DA in rat brain synaptosomes; format: biochemical
T1 construct: Synaptosomes from rat cerebrum were isolated as described by Bogen et al; from tissue; host or cells: rat cerebrum synaptosomes
T1 sequence (P23977 whole entry): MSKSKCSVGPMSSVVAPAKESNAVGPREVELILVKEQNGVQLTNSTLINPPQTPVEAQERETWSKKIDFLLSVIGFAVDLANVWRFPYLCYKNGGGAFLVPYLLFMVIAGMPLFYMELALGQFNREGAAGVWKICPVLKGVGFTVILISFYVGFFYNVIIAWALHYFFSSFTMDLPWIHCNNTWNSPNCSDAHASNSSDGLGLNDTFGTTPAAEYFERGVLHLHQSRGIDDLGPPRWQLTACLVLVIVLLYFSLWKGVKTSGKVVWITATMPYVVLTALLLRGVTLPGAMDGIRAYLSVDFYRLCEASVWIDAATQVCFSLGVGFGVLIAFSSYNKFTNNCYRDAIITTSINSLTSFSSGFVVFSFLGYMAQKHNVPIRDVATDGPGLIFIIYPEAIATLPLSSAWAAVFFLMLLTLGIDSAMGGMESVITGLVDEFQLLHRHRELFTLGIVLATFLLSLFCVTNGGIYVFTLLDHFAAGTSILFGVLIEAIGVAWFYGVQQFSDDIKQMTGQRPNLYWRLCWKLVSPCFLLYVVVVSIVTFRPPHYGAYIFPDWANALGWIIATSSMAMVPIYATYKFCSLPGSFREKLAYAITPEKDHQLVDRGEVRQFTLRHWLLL

C57BL/6J mice = experiment: Locomotor activity studies in mice; format: in vivo, mouse; conditions: for dose giving maximal locomotor effect (Emax): i.p.
Sprague-Dawley rats = test system: Sprague-Dawley rats; parameters: method as in PMID 27265782; conditions: i.p.; cited from earlier work
[3] = cited from earlier work
CD-1 mice [4] = conditions: chronic exposure, 10 mg/kg/day for 30 days; cited from earlier work
CD-1 mice [5] = test system: CD-1 mice; parameters: method as in PMID 32356113, PMID 33770233; conditions: i.p.; cited from earlier work
SERT = biological target: T2, SERT (Rattus norvegicus, UniProt P31652); experiment: Synaptosomal uptake of [3H]5-HT in rat brain synaptosomes; format: biochemical; conditions: IC50 Synaptosomes [3H]5-HT Uptake via SERT
T2 construct: Synaptosomes from rat cerebrum were isolated as described by Bogen et al; from tissue; host or cells: rat cerebrum synaptosomes
T2 sequence (P31652 whole entry): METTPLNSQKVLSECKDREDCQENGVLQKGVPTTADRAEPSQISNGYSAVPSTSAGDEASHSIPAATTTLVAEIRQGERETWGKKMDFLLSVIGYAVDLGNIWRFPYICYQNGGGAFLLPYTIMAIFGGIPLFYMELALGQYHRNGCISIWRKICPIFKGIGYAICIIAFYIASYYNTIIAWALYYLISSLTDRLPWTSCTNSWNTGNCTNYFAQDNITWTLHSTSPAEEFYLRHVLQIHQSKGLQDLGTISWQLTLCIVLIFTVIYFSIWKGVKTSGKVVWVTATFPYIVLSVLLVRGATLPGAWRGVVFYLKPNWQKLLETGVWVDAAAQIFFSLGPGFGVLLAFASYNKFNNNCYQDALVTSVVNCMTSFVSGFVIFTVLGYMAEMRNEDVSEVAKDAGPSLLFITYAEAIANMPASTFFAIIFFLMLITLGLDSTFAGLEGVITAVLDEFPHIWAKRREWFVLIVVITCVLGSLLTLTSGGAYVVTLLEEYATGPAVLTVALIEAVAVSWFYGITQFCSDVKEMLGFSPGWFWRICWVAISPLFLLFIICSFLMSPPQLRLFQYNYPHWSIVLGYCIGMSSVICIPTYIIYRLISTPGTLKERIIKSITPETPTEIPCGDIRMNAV

NET = biological target: T3, NET (Rattus norvegicus, UniProt Q63380); experiment: Synaptosomal uptake of [3H]NE in rat brain synaptosomes; format: biochemical
T3 construct: Synaptosomes from rat cerebrum were isolated as described by Bogen et al; from tissue; host or cells: rat cerebrum synaptosomes
T3 sequence (Q63380 1-617): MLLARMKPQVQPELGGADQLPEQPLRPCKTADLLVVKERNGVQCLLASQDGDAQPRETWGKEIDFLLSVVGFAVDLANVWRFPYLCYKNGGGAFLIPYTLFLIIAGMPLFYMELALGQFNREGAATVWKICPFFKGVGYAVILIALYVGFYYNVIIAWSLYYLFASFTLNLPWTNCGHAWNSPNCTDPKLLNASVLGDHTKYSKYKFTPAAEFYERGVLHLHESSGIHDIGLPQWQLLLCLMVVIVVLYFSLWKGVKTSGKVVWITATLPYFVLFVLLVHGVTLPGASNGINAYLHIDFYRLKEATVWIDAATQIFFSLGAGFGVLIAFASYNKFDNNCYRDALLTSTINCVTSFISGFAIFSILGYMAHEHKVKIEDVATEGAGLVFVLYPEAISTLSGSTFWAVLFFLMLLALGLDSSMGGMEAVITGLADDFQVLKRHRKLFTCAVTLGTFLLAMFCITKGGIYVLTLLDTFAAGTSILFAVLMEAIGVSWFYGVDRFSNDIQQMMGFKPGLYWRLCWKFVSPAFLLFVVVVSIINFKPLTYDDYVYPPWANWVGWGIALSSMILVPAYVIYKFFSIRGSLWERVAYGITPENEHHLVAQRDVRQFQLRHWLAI

VMAT2 = biological target: T4, VMAT2 (Rattus norvegicus, UniProt Q01827); experiment: Vesicular uptake of [3H]DA, [3H]NE and [3H]5-HT in rat brain synaptic vesicles; format: biochemical
T4 construct: Synaptic vesicles from rat cerebrum were isolated as described previously; from tissue; host or cells: rat cerebrum synaptic vesicles
T4 sequence (Q01827 whole entry): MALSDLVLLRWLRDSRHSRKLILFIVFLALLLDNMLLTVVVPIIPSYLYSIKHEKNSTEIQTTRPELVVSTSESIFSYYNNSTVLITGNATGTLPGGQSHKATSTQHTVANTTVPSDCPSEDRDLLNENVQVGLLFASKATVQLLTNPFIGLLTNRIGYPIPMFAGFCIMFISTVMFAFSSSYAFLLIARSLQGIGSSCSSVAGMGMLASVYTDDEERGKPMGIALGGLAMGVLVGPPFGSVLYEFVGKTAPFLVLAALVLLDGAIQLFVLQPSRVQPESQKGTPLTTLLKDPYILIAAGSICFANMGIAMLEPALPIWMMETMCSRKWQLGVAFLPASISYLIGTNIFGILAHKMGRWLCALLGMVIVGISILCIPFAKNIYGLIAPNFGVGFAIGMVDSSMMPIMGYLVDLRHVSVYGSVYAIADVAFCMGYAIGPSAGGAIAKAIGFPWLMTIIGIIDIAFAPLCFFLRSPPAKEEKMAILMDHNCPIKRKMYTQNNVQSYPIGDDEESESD

[6] = mouse, single i.p. injection of 3.75 mg/kg methamphetamine

CN[C@@H](C)Cc1ccccc1 [methamphetamine]
IC50 (vesicular DA uptake): 9.1 µM | 3-MT concentration ([1]; Dorsal Striatum): 3.6 ± 0.7 nmol/g | 5-HT concentration ([1]; Dorsal Striatum): 2.0 ± 0.3 nmol/g | DA concentration ([1]; Dorsal Striatum): 107.4 ± 21.1 nmol/g | 3-MT concentration ([1]; Nucleus Accumbens): 3.5 ± 1.0 nmol/g | 5-HT concentration ([1]; Nucleus Accumbens): 6.1 ± 0.8 nmol/g | DA concentration ([1]; Nucleus Accumbens): 82.2 ± 10.5 nmol/g | half-life ([2]; brain, 3.75 mg/kg): ~45 min | Cmax ([2]; brain, 3.75 mg/kg, Cmax in brain, mouse, single i.p. injection of 3.75 mg/kg methamphetamine): 4110 ± 150 ng/g | half-life ([2]; whole blood, 3.75 mg/kg): ~36 min | Cmax ([2]; whole blood, 3.75 mg/kg, Cmax in blood, mouse, single i.p. injection of 3.75 mg/kg methamphetamine): 910 ± 80 ng/mL | time of Cmax in blood [2, 6]: 5 min | time of Cmax in brain [2, 6]: 20 min | IC50 (DAT): 0.14 ± 0.01 µM | Emax, maximum run distance per 5 min interval (C57BL/6J mice; 3.75 mg/kg i.p., C57BL/6 mice): 1312 ± 126 cm | maximum total locomotor activity (total run distance during 240 min session) (C57BL/6J mice; 3.75 mg/kg i.p., C57BL/6 mice): 24,401 ± 2043 cm | dose giving maximal locomotor effect (Emax) (C57BL/6J mice; C57BL/6 mice): 3.75 mg/kg

CNC(C)Cc1cccs1 (stereo not shown) [methiopropamine, 1-(thiophen-2-yl)-2-methylaminopropane]
dose with significant increase in locomotor activity (Sprague-Dawley rats): 5 mg/kg | brain:blood ratios, comparison of the two drugs ([2]; 5, 30 and 60 min after injection, […] methiopropamine vs 3.75 mg/kg methamphetamine, p > 0.05): no significant differences | half-life ([2]; blood and brain, […]): ~30 min | half-life ([2]; brain, […]): ~35 min | half-life ([2]; whole blood, […]): ~31 min | peripheral postmortem blood concentration ([3]; fatal case of isolated methiopropamine use): 38 µg/mL | blood concentration ([3]; fatal intoxication case): 245 µM | sudden deaths (CD-1 mice [4]): 70 % deaths | dose with significant increase in locomotor activity (CD-1 mice [5]): 10 mg/kg | IC50 (SERT): 25.1 ± 2.91 µM | IC50 (NET): 0.47 ± 0.06 µM | IC50 (DAT): 0.74 ± 0.09 µM | potency, fold weaker compared with methamphetamine (DAT; DA, NE and 5-HT transporters): approximately 5 × | IC50 (VMAT2; IC50 Synaptic Vesicles [3H]5-HT Uptake via VMAT2, rat brain synaptic vesicles): 48.9 ± 5.02 µM | IC50 (VMAT2; IC50 Synaptic Vesicles [3H]DA Uptake via VMAT2, rat brain synaptic vesicles): 33.8 µM | IC50 (VMAT2; IC50 Synaptic Vesicles [3H]NE Uptake via VMAT2, rat brain synaptic vesicles): 47 ± 8.01 µM | IC50 (VMAT2; IC50 vesicular uptake of DA, NE and 5-HT (span over the three substrates), rat brain synaptic vesicles): 34 to 49 µM and > 25 µM and 10 to 50 µM | peak effect (Emax), maximum run distance per 5 min interval (C57BL/6J mice; […] i.p., C57BL/6 mice): 2037 ± 127 cm/5 min | dose giving maximal locomotor effect (Emax) (C57BL/6J mice; C57BL/6 mice): 12.5 mg/kg | sudden deaths (C57BL/6J mice; mouse, in vivo): did not observe any sudden deaths
